Test results published in patent US20250122191A1, “COMPOUNDS AS BCL-2 INHIBITORS” (Fochon Biosciences, Ltd, priority 2021, published 2025).

The molecules below were run on RS4;11-BCL-2 G101V cells (assay: Cell proliferation assay (MTS), RS4;11-BCL-2 G101V engineered cells). Conditions: Homo sapiens, 120 h, read-out: RS4, 11 BCL2-G101V IC50.
Type: cell-based
From the text: MTS testing kit was purchased from Promega (Madison, WI, USA). The RPMI-1640, Fetal bovine serum and Penicillin-Streptomycin were purchased from BI (Biological Industries, Beit Haemek, Israel). Puromycin was purchased from Beyotime (shanghai, China). Dimethyl sulfoxide (DMSO) was purchased from Sigma (St. Louis., MO, USA). RS4;11-BCL-2 G101V (Cobioer Lot. #: CBD2021063013P4), RS4;11-BCL-2 D103E (Cobioer Lot. #: CBD2021063013P4), RS4;11-BCL-2 D103Y (Cobioer Lot. #: CBD2022012101P4) and RS4;11-BCL-2 F104L (Cobioer Lot. #: CBD2021063014P4) cells were cultured in RPMI1640 supplemented with 1 ug/mL puromycin, 100 U/mL Penicillin-Streptomycin and 10% FBS.
To investigate whether a compound is able to inhibit the activity of BCL-2 mutation in cells, a mechanism-based assay using engineered cell lines stably overexpressing BCL-2 mutation (RS4;11-BCL-2 G101V, RS4;11-BCL-2 D103E, RS4;11-BCL-2 D103Y, and RS4;11-BCL-2 F104L) was developed. In this assay, the inhibition of BCL-2 mutation was reflected by the inhibition of cell proliferation of engineered RS4;11 cells. Cells were plated into 96-well plates at optimized cell density (RS4;11-BCL-2 G101V: 5000 cells/well; RS4;11-BCL-2 D103E: 7500 cells/well; RS4;11-BCL-2 D103Y: 7500 cells/well; RS4;11-BCL-2 F104L: 5000 cells/well). Plates were incubated at 37° C., with 5% CO2 for 4 h (RS4;11-BCL-2 G101V, RS4;11-BCL-2 F104L) and 24 h (RS4;11-BCL-2 D103E, RS4;11-BCL-2 D103Y), respectively. Compounds were serially diluted and added to the plates with the final concentrations of 10000, 3333.3, 1111.1, 370.4, 123.5, 41.2, 13.7, 4.6 and 1.5 nM. Plates were incubated at 37° C., with 5% CO2 for 120 h (RS4; 11-BCL-2 G101V, RS4; 11-BCL-2 F104L) and 72 h (RS4;11-BCL-2 D103E, RS4;11-BCL-2 D103Y), respectively. 20 μl MTS was added into each well and the plates were incubated at 37° C., with 5% CO2 exactly for 2 h. The absorbance was measured by a microplate reader at 490 nm. IC50 values were calculated using GraphPad Prism 8.0 software.
With COc1ccc(CN2CCN(C3CC4(CCN(c5ccc(C(=O)NS(=O)(=O)c6cnc(NC[C@H]7CC[C@](C)(O)CC7)c([N+](=O)[O-])c6)c(Oc6cnc7[nH]cc(F)c7c6)c5)CC4)C3)[C@H](c3ccccc3C(C)C)C2)cc1F [Example 201, 2-((3-fluoro-1H-pyrrolo[2,3-b]pyridin-5-yl)oxy)-4-(2-((R)-4-(3-fluoro-4-methoxybenzyl)-2-(2-isopropylphenyl)piperazin-1-yl)-7-azaspiro [3.5]nonan-7-yl)-N-((6-((((1r,4r)-4-hydroxy-4-methylcyclohexyl)methyl)amino)-5-nitropyridin-3-yl)sulfonyl)benzamide] the IC50 was 1 nM.

The molecules below were run on Toledo cells (assay: Cell proliferation assay (MTS), Toledo cells). Conditions: Homo sapiens, 72 h.
Type: cell-based
Procedure: MTS testing kit was purchased from Promega (Madison, WI, USA). The RPMI-1640, Fetal bovine serum and Penicillin-Streptomycin were purchased from BI (Biological Industries, Beit Haemek, Israel). Dimethyl sulfoxide (DMSO) was purchased from Sigma (St. Louis., MO, USA). Toledo (ATCC catalog #: CRL-2631) cells were cultured in RPMI-1640 supplemented with Penicillin-Streptomycin and 10% FBS.
To investigate whether a compound is able to inhibit the activity of BCL-2 in cells, a mechanism-based assay using Toledo lines was developed. In this assay, the inhibition of BCL-2 was reflected by the inhibition of cell proliferation of Toledo cells. Cells were plated into 96-well plates at the optimized cell density of 30000 cells/well. Plates were incubated at 37° C., with 5% CO2 for 4 h. Compounds were serially diluted and added to the plates with the final concentrations of 10000, 3333.3, 1111.1, 370.4, 123.5, 41.2, 13.7, 4.6 and 1.5 nM. Plates were incubated at 37° C., with 5% CO2 for 72 h. 20 μl MTS was added into each well and the plates were incubated at 37° C., with 5% CO2 for exactly 2 h. The absorbance was measured by a microplate reader at 490 nm. IC50 was calculated using GraphPad Prism 5.0 software.
COc1ccc(CN2CCN(C3CC4(CCN(c5ccc(C(=O)NS(=O)(=O)c6cnc(NC[C@H]7CC[C@](C)(O)CC7)c([N+](=O)[O-])c6)c(Oc6cnc7[nH]cc(F)c7c6)c5)CC4)C3)[C@H](c3ccccc3C(C)C)C2)cc1F [Example 201, 2-((3-fluoro-1H-pyrrolo[2,3-b]pyridin-5-yl)oxy)-4-(2-((R)-4-(3-fluoro-4-methoxybenzyl)-2-(2-isopropylphenyl)piperazin-1-yl)-7-azaspiro [3.5]nonan-7-yl)-N-((6-((((1r,4r)-4-hydroxy-4-methylcyclohexyl)methyl)amino)-5-nitropyridin-3-yl)sulfonyl)benzamide] showed an IC50 of 1 nM.
CCOc1nc2[nH]cc(F)c2cc1Oc1cc(N2CCC3(CC2)CC(N2CCN(Cc4cc(F)c(OC)c(F)c4)C[C@H]2c2ccccc2C(C)C)C3)ccc1C(=O)NS(=O)(=O)c1cnc(NC[C@H]2CC[C@](C)(O)CC2)c([N+](=O)[O-])c1 [Example 108, 4-(2-((R)-4-(3,5-difluoro-4-methoxybenzyl)-2-(2-isopropylphenyl)piperazin-1-yl)-7-azaspiro[3.5]nonan-7-yl)-2-((6-ethoxy-3-fluoro-1H-pyrrolo[2,3-b]pyridin-5-yl)oxy)-N-((6-((((1r,4r)-4-hydroxy-4-methylcyclohexyl)methyl)amino)-5-nitropyridin-3-yl)sulfonyl)benzamide] was tested, and the IC50 was 1 nM.
Molecule CC(C)c1ccccc1[C@@H]1CN(Cc2ccc3c(c2)OCCO3)CCN1C1CC2(CCN(c3ccc(C(=O)NS(=O)(=O)c4cnc(NC[C@H]5CC[C@](C)(O)CC5)c([N+](=O)[O-])c4)c(Oc4cnc5[nH]cc(F)c5c4)c3)CC2)C1 [Example 322, 4-(2-((R)-4-((2,3-dihydrobenzo[b][1,4]dioxin-6-yl)methyl)-2-(2-isopropylphenyl)piperazin-1-yl)-7-azaspiro[3.5]nonan-7-yl)-2-((3-fluoro-1H-pyrrolo[2,3-b]pyridin-5-yl)oxy)-N-((6-((((1r,4r)-4-hydroxy-4-methylcyclohexyl)methyl)amino)-5-nitropyridin-3-yl)sulfonyl)benzamide] has an IC50 of 1 nM.
For CCOc1nc2[nH]cc(F)c2cc1Oc1cc(N2CCC3(CC2)CC(N2CCN(C(C)=O)C[C@H]2c2ccccc2C(C)C)C3)ccc1C(=O)NS(=O)(=O)c1cnc(NC[C@H]2CC[C@](C)(O)CC2)c([N+](=O)[O-])c1 [Example 147, 4-(2-((R)-4-acetyl-2-(2-isopropylphenyl)piperazin-1-yl)-7-azaspiro[3.5]nonan-7-yl)-2-((6-ethoxy-3-fluoro-1H-pyrrolo[2,3-b]pyridin-5-yl)oxy)-N-((6 ((((1r,4r)-4-hydroxy-4-methylcyclohexyl)methyl)amino)-5-nitropyridin-3-yl)sulfonyl)benzamide], the IC50 was 1 nM.
CCOc1nc2[nH]cc(F)c2cc1Oc1cc(N2CCC3(CC2)CC(N2CCN(Cc4ccc(OC)cn4)C[C@H]2c2ccccc2C(C)C)C3)ccc1C(=O)NS(=O)(=O)c1cnc(NC[C@H]2CC[C@](C)(O)CC2)c([N+](=O)[O-])c1 [Example 121, 2-((6-ethoxy-3-fluoro-1H-pyrrolo[2,3-b]pyridin-5-yl)oxy)-N-((6-((((1r,4r)-4-hydroxy-4-methylcyclohexyl)methyl)amino)-5-nitropyridin-3-yl)sulfonyl)-4-(2-((R)-2-(2-isopropylphenyl)-4-((5-methoxypyridin-2-yl)methyl)piperazin-1-yl)-7-azaspiro[3.5]nonan-7-yl)benzamide] gave an IC50 of 1 nM.
For CCOc1nc2[nH]cc(F)c2cc1Oc1cc(N2CCC3(CC2)CC(N2CCN(C4CC4)C[C@H]2c2ccccc2C(C)C)C3)ccc1C(=O)NS(=O)(=O)c1cnc(NC[C@H]2CC[C@](C)(O)CC2)c([N+](=O)[O-])c1 [Example 144, 4-(2-((R)-4-cyclopropyl-2-(2-isopropylphenyl)piperazin-1-yl)-7-azaspiro[3.5]nonan-7-yl)-2-((6-ethoxy-3-fluoro-1H-pyrrolo[2,3-b]pyridin-5-yl)oxy)-N-((6-((((1r,4r)-4-hydroxy-4-methylcyclohexyl)methyl)amino)-5-nitropyridin-3-yl)sulfonyl)benzamide], the IC50 was 1 nM.
CCOc1nc2[nH]cc(F)c2cc1Oc1cc(N2CCC3(CC2)CC(N2CCN(Cc4ccncc4)C[C@H]2c2ccccc2C(C)C)C3)ccc1C(=O)NS(=O)(=O)c1cnc(NC[C@H]2CC[C@](C)(O)CC2)c([N+](=O)[O-])c1 [Example 238, 2-((6-ethoxy-3-fluoro-1H-pyrrolo[2,3-b]pyridin-5-yl)oxy)-N-((6-((((1r,4r)-4-hydroxy-4-methylcyclohexyl)methyl)amino)-5-nitropyridin-3-yl)sulfonyl)-4-(2-((R)-2-(2-isopropylphenyl)-4-(pyridin-4-ylmethyl)piperazin-1-yl)-7-azaspiro[3.5]nonan-7-yl)benzamide] showed an IC50 of 1 nM.
CC(C)c1ccccc1[C@@H]1CN(Cc2ccc(S(C)(=N)=O)cc2)CCN1C1CC2(CCN(c3ccc(C(=O)NS(=O)(=O)c4cnc(NC[C@H]5CC[C@](C)(O)CC5)c([N+](=O)[O-])c4)c(Oc4cnc5[nH]cc(F)c5c4)c3)CC2)C1 (stereo partly drawn) [Example 337, 2-((3-fluoro-1H-pyrrolo[2,3-b]pyridin-5-yl)oxy)-N-((6-((((1r,4r)-4-hydroxy-4-methylcyclohexyl)methyl)amino)-5-nitropyridin-3-yl)sulfonyl)-4-(2-((2R)-2-(2-isopropylphenyl)-4-(4-(S-methylsulfonimidoyl)benzyl)piperazin-1-yl)-7-azaspiro[3.5]nonan-7-yl)benzamide] was tested, and the IC50 was 1 nM.
With COc1nc2[nH]cc(F)c2cc1Oc1cc(N2CCC3(CC2)CC(N2CCN(Cc4ccc5c(c4)OCCO5)C[C@H]2c2ccccc2C(C)C)C3)ccc1C(=O)NS(=O)(=O)c1cnc(NC[C@H]2CC[C@](C)(O)CC2)c([N+](=O)[O-])c1 [Example 321, 4-(2-((R)-4-((2,3-dihydrobenzo[b][1,4]dioxin-6-yl)methyl)-2-(2-isopropylphenyl)piperazin-1-yl)-7-azaspiro[3.5]nonan-7-yl)-2-((3-fluoro-6-methoxy-1H-pyrrolo[2,3-b]pyridin-5-yl)oxy)-N-((6-((((1r,4r)-4-hydroxy-4-methylcyclohexyl)methyl)amino)-5-nitropyridin-3-yl)sulfonyl)benzamide] the IC50 was 1 nM.
With CCOc1nc2[nH]cc(F)c2cc1Oc1cc(N2CCC3(CC2)CC(N2CCN(C(C)C)C[C@H]2c2ccccc2C(C)C)C3)ccc1C(=O)NS(=O)(=O)c1cnc(NC[C@H]2CC[C@](C)(O)CC2)c([N+](=O)[O-])c1 [Example 100, 2-((6-ethoxy-3-fluoro-1H-pyrrolo[2,3-b]pyridin-5-yl)oxy)-N-((6-((((1r,4r)-4-hydroxy-4-methylcyclohexyl)methyl)amino)-5-nitropyridin-3-yl)sulfonyl)-4-(2-((R)-4-isopropyl-2-(2-isopropylphenyl)piperazin-1-yl)-7-azaspiro[3.5]nonan-7-yl)benzamide] the IC50 was 1 nM.
Work on CCOc1nc2[nH]cc(F)c2cc1Oc1cc(N2CCC3(CC2)CC(N2CCN(Cc4ccc(OC)c(F)c4)C[C@H]2c2ccccc2C(C)C)C3)ccc1C(=O)NS(=O)(=O)c1cnc(NC[C@H]2CC[C@](C)(O)CC2)c([N+](=O)[O-])c1 [Example 98, 2-((6-ethoxy-3-fluoro-1H-pyrrolo[2,3-b]pyridin-5-yl)oxy)-4-(2-((R)-4-(3-fluoro-4-methoxybenzyl)-2-(2-isopropylphenyl)piperazin-1-yl)-7-azaspiro[3.5]nonan-7-yl)-N-((6-((((1r,4r)-4-hydroxy-4-methylcyclohexyl)methyl)amino)-5-nitropyridin-3-yl)sulfonyl)benzamide] yielded an IC50 of 1 nM.
